For four compounds, GI50 and TGI results are on record in PubChem BioAssay (NCI).

The structures appear in SMILES notation.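 Results reflect a 48-hour exposure of cells in 96-well plates to compound at five concentrations. GI50: concentration for 50% inhibition of growth. TGI denotes the concentration required for complete inhibition of growth.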

Some test systems named below: NCI-H522 lung; HCT-116 colon; HCC-2998 colon; PC-3 prostate; SK-OV-3 ovarian; SK-MEL-5 melanoma; MALME-3M melanoma; DU-145 prostate; HOP-62 NSCLC; SF-268 CNS.
Holding throughout (assay): growth of human tumour cells (NCI), 48 h

In the case of `CC(=O)[C@H]1CCC/C=C/[C@@H]2C[C@H](O)C[C@H]2[C@H](O)/C=C/C(=O)O1`, the GI50 is 805 nM in the experiment with NCI-H522 lung; 337 nM in the experiment with HCT-116 colon; 1330 nM with HCC-2998 colon; 678 nM in the experiment with PC-3 prostate; 2430 nM in the experiment with SK-OV-3 ovarian; 163 nM in the experiment with SK-MEL-5 melanoma. Moreover, the GI50 was 270 nM in the experiment on MALME-3M melanoma, 2990 nM in the experiment on DU-145 prostate, 2080 nM with HOP-62 NSCLC and 448 nM in the experiment on SF-268 CNS. Moreover, the TGI in the experiment with NCI-H522 lung was 2740 nM; with HCT-116 colon it was 1.18 µM; in the experiment with HCC-2998 colon, 5.07 µM; in the experiment with PC-3 prostate, > 100 µM; in the experiment with SK-OV-3 ovarian, > 31.6 µM; with SK-MEL-5 melanoma it was 318 nM. Also, the TGI is 3.4 µM in the experiment with MALME-3M melanoma, > 100 µM with DU-145 prostate, > 30.2 µM with HOP-62 NSCLC and > 100 µM in the experiment with SF-268 CNS.
On to `CSc1nc2c(c(=O)n1C)CN(C1CCCCC1)C(=O)C(c1ccccc1)N2` (stereo not given), for which the GI50 with NCI-H522 lung is 11900 nM; in the experiment on HCT-116 colon, 36600 nM; in the experiment with HCC-2998 colon it was 35900 nM; with PC-3 prostate, 21700 nM; in the experiment on SK-OV-3 ovarian it was 76800 nM; in the experiment with SK-MEL-5 melanoma it was 10400 nM. Moreover, the GI50 was 10900 nM in the experiment with MALME-3M melanoma, 64400 nM in the experiment with DU-145 prostate, > 100000 nM in the experiment on HOP-62 NSCLC and 25300 nM with SF-268 CNS. Further, the TGI with NCI-H522 lung is > 100000 nM; with HCT-116 colon, > 100 µM; in the experiment with HCC-2998 colon, > 100 µM; with PC-3 prostate, > 100 µM; in the experiment on SK-OV-3 ovarian, > 100 µM; in the experiment on SK-MEL-5 melanoma, 25700 nM. The TGI with MALME-3M melanoma was 43.5 µM; with DU-145 prostate, > 100 µM; with HOP-62 NSCLC, > 100 µM; in the experiment on SF-268 CNS it was > 100 µM.
Consider `CCN(CC)CCCC(C)N/C(=C1\C(=O)NC(=O)\C1=C(/NC(C)CCCN(CC)CC)c1cccc(OC)c1)c1cccc(OC)c1` (stereo not given), for which the GI50 in the experiment on NCI-H522 lung was 755 nM; with HCT-116 colon, 450 nM; in the experiment with HCC-2998 colon, 845 nM; in the experiment on PC-3 prostate, 877 nM; in the experiment with SK-OV-3 ovarian, 1310 nM; with SK-MEL-5 melanoma, 836 nM. The GI50 in the experiment on MALME-3M melanoma was 850 nM; with DU-145 prostate, 1020 nM; with HOP-62 NSCLC it was 815 nM; in the experiment with SF-268 CNS, 1030 nM. For the same compound, the TGI with NCI-H522 lung stood at 1690 nM; in the experiment with HCT-116 colon it was 3.24 µM; in the experiment with HCC-2998 colon it was 1.61 µM; in the experiment on PC-3 prostate, 2.56 µM; in the experiment with SK-OV-3 ovarian, 3.92 µM; with SK-MEL-5 melanoma, 1540 nM. Besides, the TGI with MALME-3M melanoma worked out at 1.63 µM; in the experiment with DU-145 prostate, 4.5 µM; in the experiment on HOP-62 NSCLC, 2.27 µM; in the experiment on SF-268 CNS it was 3.11 µM.
`CC(=O)NNc1nc(C)c(C(/C=C/c2ccccc2O)=N/N=C(N)N)s1`: the TGI was > 100000 nM with NCI-H522 lung; > 100 µM with HCT-116 colon; > 100 µM in the experiment with HCC-2998 colon; > 100 µM in the experiment on PC-3 prostate; > 100 µM in the experiment on SK-OV-3 ovarian; > 100000 nM in the experiment with SK-MEL-5 melanoma. Besides, the TGI in the experiment with MALME-3M melanoma, in the experiment on DU-145 prostate, in the experiment with HOP-62 NSCLC and with SF-268 CNS was > 100 µM throughout.
